In patent publication US9108939B2, “(1, 1, 1,3,3,3-hexafluoro-2 hydroxypropan-2-yl) phenyl derivative, pharmaceutical compositions thereof and their use for the treatment of atherosclerosis” (Merck Sharp & Dohme B.V., priority 2009, dated 2015):

These compounds were tested against T1, recombinant human LXRβ-LBD-GST (Homo sapiens, UniProt P55055) (assay: Radioligand competition binding scintillation proximity assay (SpA), LXRβ). Settings: not given.
T1 construct: The LBD of LXRα or LXRβ was amplified by PCR and sub-cloned into the prokaryotic expression vector pGEX-4T-1; made in house; host or cells: E. coli
T1 sequence (P55055 222-460 limits assumed): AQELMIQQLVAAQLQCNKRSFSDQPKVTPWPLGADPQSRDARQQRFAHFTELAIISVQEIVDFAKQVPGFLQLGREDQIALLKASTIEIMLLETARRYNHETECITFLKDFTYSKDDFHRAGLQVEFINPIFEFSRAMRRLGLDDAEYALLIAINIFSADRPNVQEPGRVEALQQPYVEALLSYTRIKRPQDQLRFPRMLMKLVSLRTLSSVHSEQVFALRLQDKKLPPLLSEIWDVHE
Excerpt: Radioligand Competition Binding Scintillation Proximity Assay (SpA) Using Recombinant Human LXRα or LXRβ Protein
These assays utilise the purified ligand binding domain (LBD) of Liver X Receptor alpha (LXRα) or Liver X Receptor beta (LXRβ) fused to […] (GST) tagged protein (LXRα-LBD-GST and LXRβ-LBD-GST respectively) and scintillation proximity assay (SpA) technology to determine binding affinities (pKi) of compounds at the ligand binding domain (LBD) of the human nuclear hormone receptor LXRα or LXRβ.
Preparation of Recombinant Human LXRα and LXRβ
Human LXRα and LXRβ were expressed as GST-fusion proteins in E. coli.
The LBD of LXRα or LXRβ was amplified by PCR and sub-cloned into the prokaryotic expression vector pGEX-4T-1 (GE Healthcare). […] E. coli, containing either the LXRα or LXRβ pGEX-4T-1 plasmid, were propagated, induced, and harvested by centrifugation. The bacterial pellets were resuspended in lysis buffer containing 50 mM tris(Hydroxymethyl)aminomethane (TRIS)-pH 8.0, 100 mM Sodium Chloride (NaCl), 1 mM ethylenediaminetetraacetic acid (EDTA) and one tablet of Proteinase inhibitor cocktail complete/EDTA free (Roche) (per 50 mL of buffer). The mixtures were sonicated on ice with a Branson sonifier. The suspensions were centrifuged and dithiothreitol (DTT) added to the supernatants to obtain a final concentration of 25 mM. […] Proteins were stored in 20 mM N2-hydroxyethylpiperazine-N′-2-ethanesulfonic acid (HEPES), 2 mM DTT with 10% glycerol at −80° C.
Binding to LXRα or LXRβ LBDs
For LXRα or LXRβ assays, an aliquot of recombinant human LXRα-LBD-GST or LXRβ-LBD-GST protein was diluted to 0.5 μg/mL and incubated in a final volume of 100 μL SpA buffer (10 mM potassium hydrogen phosphate anhydrous [K2HPO4], 10 mM potassium Phosphate Monobasic [KH2PO4], 2 mM EDTA pH 7.1, 50 mM NaCl, 1 mM DTT, 2 mM 3-[(3-cholamidopropyl)dimethylammonio]-1-propanesulfonate (CHAPS)) containing Protein-A coupled scintillant filled YtSi SpA beads (GE Healthcare), to a final concentration of 1 mg/mL and Goat anti-GST antibody (GE Healthcare) to a final concentration of 5 μg/mL. […] Test compounds were assayed over a concentration range. After incubation, the assay plates were read on a Packard TopCount.

Ki [nM]	SMILES
5.89	O=C(Nc1ccc(OC2CCN(Cc3ccc(C(O)(C(F)(F)F)C(F)(F)F)cc3)CC2)cc1)Nc1ccnnc1 [Example 1F, 1-(4-(1-(4-(1,1,1,3,3,3-Hexafluoro-2-hydroxypropan-2-yl)benzyl)piperidin-4-yloxy)phenyl)-3-(pyridazin-4-yl)urea]

Same assay, conditions: read-out: LXRβ pKi (converted)

Ki [nM]	SMILES
7.94	O=C(Nc1ccncc1)Nc1ccc(CC2CCN(Cc3ccc(C(O)(C(F)(F)F)C(F)(F)F)cc3)CC2)cc1 [Example 7, 1-(4-((1-(4-(1,1,1,3,3,3-Hexafluoro-2-hydroxypropan-2-yl)benzyl)piperidin-4-yl)methyl)phenyl)-3-(pyridin-4-yl)urea]
7.41	O=C(Nc1ccc(CC2CCN(Cc3ccc(C(O)(C(F)(F)F)C(F)(F)F)cc3)CC2)cc1)Nc1ccncc1F [Example 6S, 1-(3-Fluoropyridin-4-yl)-3-(4-((1-(4-(1,1,1,3,3,3-hexafluoro-2-hydroxypropan-2-yl)benzyl)piperidin-4-yl)methyl)phenyl)urea]
21.9	O=C(Nc1ccc(CC2CCN(Cc3ccc(C(O)(C(F)(F)F)C(F)(F)F)cc3)CC2)cc1F)NC1COC1 [Example 12AE, 1-(2-Fluoro-4-((1-(4-(1,1,1,3,3,3-hexafluoro-2-hydroxypropan-2-yl)benzyl)piperidin-4-yl)methyl)phenyl)-3-(oxetan-3-yl)urea]
6.03	CC(C)(O)CNC(=O)Nc1ccc(CC2CCN(Cc3ccc(C(O)(C(F)(F)F)C(F)(F)F)cc3)CC2)cc1Cl [Example 17, 1-(2-Chloro-4-((1-(4-(1,1,1,3,3,3-hexafluoro-2-hydroxypropan-2-yl)benzyl)piperidin-4-yl)methyl)phenyl)-3-(2-hydroxy-2-methylpropyl)urea]
7.94	CC(O)(CNC(=O)Nc1cc(F)c(CC2CCN(Cc3ccc(C(O)(C(F)(F)F)C(F)(F)F)cc3)CC2)cc1F)C(F)(F)F (centres unmarked) [Example 16B, 1-(2,5-Difluoro-4-((1-(4-(1,1,1,3,3,3-hexafluoro-2-hydroxypropan-2-yl)benzyl)piperidin-4-yl)methyl)phenyl)-3-(3,3,3-trifluoro-2-hydroxy-2-methylpropyl)urea]
9.12	O=C(Nc1ccc(CC2CCN(Cc3ccc(C(O)(C(F)(F)F)C(F)(F)F)cc3)CC2)cc1)NC1COC1 [Example 6P, 1-(4-((1-(4-(1,1,1,3,3,3-Hexafluoro-2-hydroxypropan-2-yl)benzyl)piperidin-4-yl)methyl)phenyl)-3-(oxetan-3-yl)urea]
21.9	O=C(Nc1ccc(CC2CCN(Cc3ccc(C(O)(C(F)(F)F)C(F)(F)F)cc3)CC2)cc1F)NC1CCOCC1 [Example 12AG, 1-(2-Fluoro-4-((1-(4-(1,1,1,3,3,3-hexafluoro-2-hydroxypropan-2-yl)benzyl)piperidin-4-yl)methyl)phenyl)-3-(tetrahydro-2H-pyran-4-yl)urea]
5.5	O=C(Nc1ccncc1)Nc1ccc(CC2CCN(Cc3ccc(C(O)(C(F)(F)F)C(F)(F)F)cc3)CC2)cc1F [Example 13, 1-(2-Fluoro-4-((1-(4-(1,1,1,3,3,3-hexafluoro-2-hydroxypropan-2-yl)benzyl)piperidin-4-yl)methyl)phenyl)-3-(pyridin-4-yl)urea]
4.9	O=C(Nc1cnoc1)Nc1ccc(CC2CCN(Cc3ccc(C(O)(C(F)(F)F)C(F)(F)F)cc3)CC2)cc1F [Example 12D, 1-(2-Fluoro-4-((1-(4-(1,1,1,3,3,3-hexafluoro-2-hydroxypropan-2-yl)benzyl)piperidin-4-yl)methyl)phenyl)-3-(isoxazol-4-yl)urea]
5.75	CC(O)(CNC(=O)Nc1ccc(CC2CCN(Cc3ccc(C(O)(C(F)(F)F)C(F)(F)F)cc3)CC2)cc1F)C(F)(F)F (centres unmarked) [Example 12AA, 1-(2-Fluoro-4-((1-(4-(1,1,1,3,3,3-hexafluoro-2-hydroxypropan-2-yl)benzyl)piperidin-4-yl)methyl)phenyl)-3-(3,3,3-trifluoro-2-hydroxy-2-methylpropyl)urea]
4.27	O=C(Nc1ccc(CC2CCN(Cc3ccc(C(O)(C(F)(F)F)C(F)(F)F)cc3)CC2)cc1)Nc1ccncn1 [Example 7B, 1-(4-((1-(4-(1,1,1,3,3,3-Hexafluoro-2-hydroxypropan-2-yl)benzyl)piperidin-4-yl)methyl)phenyl)-3-(pyrimidin-4-yl)urea]
2.75	O=C(NCC(O)C(F)(F)F)Nc1ccc(CC2CCN(Cc3ccc(C(O)(C(F)(F)F)C(F)(F)F)cc3)CC2)cc1F (centres unmarked) [Example 12I, 1-(2-Fluoro-4-((1-(4-(1,1,1,3,3,3-hexafluoro-2-hydroxypropan-2-yl)benzyl)piperidin-4-yl)methyl)phenyl)-3-(3,3,3-trifluoro-2-hydroxypropyl)urea]
11.5	CC(C)(O)CNC(=O)Nc1ccc(OC2CCN(Cc3ccc(C(O)(C(F)(F)F)C(F)(F)F)cc3)CC2)cc1 [Example 1D, 1-(4-(1-(4-(1,1,1,3,3,3-Hexafluoro-2-hydroxypropan-2-yl)benzyl)piperidin-4-yloxy)phenyl)-3-(2-hydroxy-2-methylpropyl)urea]
3.02	O=C(Nc1ccc(OC2CCN(Cc3ccc(C(O)(C(F)(F)F)C(F)(F)F)cc3)CC2)cc1)Nc1ccncn1 [Example 2E, 1-(4-(1-(4-(1,1,1,3,3,3-Hexafluoro-2-hydroxypropan-2-yl)benzyl)piperidin-4-yloxy)phenyl)-3-(pyrimidin-4-yl)urea]
17	O=C(Nc1ccc(CC2CCN(Cc3ccc(C(O)(C(F)(F)F)C(F)(F)F)cc3)CC2)cc1F)N[C@H]1CCOC1 [Example 12F, (S)-1-(2-Fluoro-4-((1-(4-(1,1,1,3,3,3-hexafluoro-2-hydroxypropan-2-yl)benzyl)piperidin-4-yl)methyl)phenyl)-3-(tetrahydrofuran-3-yl)urea]
2.04	O=C(Nc1ccncc1)Nc1ccc(OC2CCN(Cc3ccc(C(O)(C(F)(F)F)C(F)(F)F)cc3)CC2)cc1 [Example 2, 1-(4-(1-(4-(1,1,1,3,3,3-Hexafluoro-2-hydroxypropan-2-yl)benzyl)piperidin-4-yloxy)phenyl)-3-(pyridin-4-yl)urea]
17	CC(C)(O)CNC(=O)Nc1ccc(CC2CCN(Cc3ccc(C(O)(C(F)(F)F)C(F)(F)F)cc3)CC2)cc1F [Example 12AC, 1-(2-Fluoro-4-((1-(4-(1,1,1,3,3,3-hexafluoro-2-hydroxypropan-2-yl)benzyl)piperidin-4-yl)methyl)phenyl)-3-(2-hydroxy-2-methylpropyl)urea]
24.5	CC(C)(O)CNC(=O)Nc1cc(F)c(CC2CCN(Cc3ccc(C(O)(C(F)(F)F)C(F)(F)F)cc3)CC2)cc1F [Example 16, 1-(2,5-Difluoro-4-((1-(4-(1,1,1,3,3,3-hexafluoro-2-hydroxypropan-2-yl)benzyl)piperidin-4-yl)methyl)phenyl)-3-(2-hydroxy-2-methylpropyl)urea]
9.55	Cc1cc(NC(=O)Nc2ccc(CC3CCN(Cc4ccc(C(O)(C(F)(F)F)C(F)(F)F)cc4)CC3)cc2F)no1 [Example 12E, 1-(2-Fluoro-4-((1-(4-(1,1,1,3,3,3-hexafluoro-2-hydroxypropan-2-yl)benzyl)piperidin-4-yl)methyl)phenyl)-3-(5-methylisoxazol-3-yl)urea]
2	O=C(Nc1ccc(OC2CCN(Cc3ccc(C(O)(C(F)(F)F)C(F)(F)F)cc3)CC2)cc1)Nc1ccncc1F [Example 2C, 1-(3-Fluoropyridin-4-yl)-3-(4-(1-(4-(1,1,1,3,3,3-hexafluoro-2-hydroxypropan-2-yl)benzyl)piperidin-4-yloxy)phenyl)urea]
9.77	O=C(Nc1ccc(OC2CCN(Cc3ccc(C(O)(C(F)(F)F)C(F)(F)F)cc3)CC2)cc1)NC1CCOCC1 [Example 1C, 1-(4-(1-(4-(1,1,1,3,3,3-Hexafluoro-2-hydroxypropan-2-yl)benzyl)piperidin-4-yloxy)phenyl)-3-(tetrahydro-2H-pyran-4-yl)urea]
9.77	O=C(Nc1ccncn1)Nc1ccc(CC2CCN(Cc3ccc(C(O)(C(F)(F)F)C(F)(F)F)cc3)CC2)cc1F [Example 13B, 1-(2-Fluoro-4-((1-(4-(1,1,1,3,3,3-hexafluoro-2-hydroxypropan-2-yl)benzyl)piperidin-4-yl)methyl)phenyl)-3-(pyrimidin-4-yl)urea]
